Entries after “also recorded” stand apart in the source; their conditions may differ. Structures can show the parent of a compound that is named as a salt. Where two headings read alike, the source gives them in different places.
Experiments:
L1210 cells [1] = experiment: L1210 growth inhibition, IC50 determination; type: cell-based, murine
Description: Murine L1210 leukemia cells (ATCC CCL 219) were maintained in logarithmic growth in RPMI-1640 medium containing 10% fetal calf serum or a semi-synthetic equivalent, NuSerum, 2% HEPES-MOPS buffer and 1 mM aminoguanidine.

[2] = tested on: S-adenosylmethionine decarboxylase (AdoMetDC); experiment: AdoMetDC activity in treated L1210 cells; type: cell-based, murine; details: L1210, 1 μM at 6 hours
Description: (§1) On the basis of these studies, it was elected to evaluate the impact of the triamines on ODC and AdoMetDC at 4 and 6 hours, respectively.
(§2) ODC and AdoMetDC activities were determined as ^14CO2 released from [^14C]-carboxyl-labeled L-ornithine [Seely et al, “Ornithine Decarboxylase (Mouse Kidney),” Methods Enzymol., Vol. 94, pages 158-161 (1983)] or S-adenosyl-L-methionine [Pegg et al, “S-Adenosylmethionine Decarboxylase (Rat Liver),” Methods Enzymol., Vol. 94, pages 234-239 (1983)], respectively. Included in each assay were untreated L1210 cells as controls, as well as cells treated with DEHSPM, a drug having a known reproducible effect on each enzyme, as positive controls.

[3] = tested on: ornithine decarboxylase (ODC); experiment: ODC activity in treated L1210 cells; type: cell-based, murine; details: L1210, 1 μM at 4 hours
Description: as §1, §2

[4] = tested on: spermidine/spermine acetyltransferase (SSAT); experiment: SSAT activity in treated L1210 cells; type: cell-based, murine; details: L1210, 10 μM at 48 hours (triamine analogues)
From the text: Spermidine/spermine N^1-acetyltransferase activity was based on quantitation of [^14C]-N^1-acetylspermidine formed by acetylation of SPD with [^14C] acetyl coenzyme A according to the method of Libby et al [Biochem. Pharmacol., Vol. 38, supra]. Cells treated with DENSPM were positive controls.

L1210 cells [5] = experiment: Polyamine pool analysis in L1210 cells; type: cell-based, murine; details: for Put / Spd / activity at 100 µM / activity at 500 µM / activity at 25 µM / activity at 125 µM / activity at 0.9 µM / activity at 4.5 µM: % of untreated control; for Put / Spd: Trihydrochloride; for activity at 100 µM / activity at 500 µM / activity at 25 µM / activity at 125 µM / activity at 0.9 µM / activity at 4.5 µM: Mus musculus; for Analogue: intracellular amount
Description: The following guidelines were adopted for studying the impact of the analogues on polyamine pools (Table 2). The measurements were made after a 48-hour exposure to the analogue, and two different concentrations of analogue were evaluated in each case.
(§3) The cells were washed twice with cold RPMI-1640, and the pellet was treated with 0.6 N HClO4 (1 ml/10^7 cells). Polyamine contents of the perchloric acid extracts were quantitated by HPLC of the DANSYL derivatives [Bergeron et al, J. Med. Chem., Vol. 37, supra].

[6] = tested on: polyamine transport apparatus; experiment: Competitive uptake determination: inhibition of [3H]spermidine transport into L1210 cells; type: cell-based, murine; details: analogue inhibition of spermidine transport
Description: The ability of the norspermidines, spermidines, homospermidines, 4,5- and 5,5-triamines to compete with radiolabeled SPD for uptake was evaluated (Table 1). The general trend is that the terminally alkylated triamines have higher Ki values than the unalkylated triamines and are thus less easily taken up by the cell. […] This is not completely true with the norspermidines and the 5,5 triamines. The relationship holds with methyl and ethyl but not for the propyl of the latter two systems. Finally, the number of methylenes separating the amines plays a role in determining polyamine uptake properties. In general the effectiveness with which the analogues compete for uptake is spermidines≈homospermidines>4,5 triamines>5,5 triamines>norspermidine.
The polyamine derivatives were studied for their ability to compete with [^3H]-SPD for uptake into L1210 cells [Bergeron et al, J. Med. Chem., Vol. 37, supra]. Lineweaver-Burk plots indicated a simple competitive inhibition with respect to SPD.

L1210 cells [7] = experiment: Metabolic transformation of polyamine analogues by L1210 cells; type: in vitro ADME, murine; details: 48 hours, 100 μM analogue
Description: as §3

L1210 cells [8] = details: intracellular amount, 48 hours, cited from earlier work
[9] = Mus musculus, L1210, 48 h, L1210, 48 hour exposure, read-out: IC50 48 hour
[10] = Mus musculus, L1210, 96 h, L1210, 96 hour exposure, read-out: IC50 96 hour
[11] = 500 μM, 48 hours, listed as (4,5)
[12] = L1210, 48 h, 100 μM, read-out: Put
[13] = L1210, 48 h, 100 μM, read-out: Spd
[14] = L1210, 48 h, 100 μM, read-out: Spm
[15] = L1210, 48 h, 500 μM, read-out: Put
[16] = L1210, 48 h, 500 μM, read-out: Spd
[17] = L1210, 48 h, 500 μM, read-out: Spm
[18] = 500 μM, 48 hours, listed as (5,5)

| SMILES | IC50 (L1210 cells [1]; [9]) [µM] | IC50 (L1210 cells [1]; [10]) [µM] | AdoMetDC activity, percent of untreated control [2] | ODC activity, percent of untreated control [3] | SSAT activity, percent of untreated control [4] | activity at 100 µM (L1210 cells [5]; [12]) [%] | activity at 100 µM (L1210 cells [5]; [13]) [%] | activity at 100 µM (L1210 cells [5]; [14]) [%] | activity at 500 µM (L1210 cells [5]; [15]) [%] | activity at 500 µM (L1210 cells [5]; [16]) [%] | activity at 500 µM (L1210 cells [5]; [17]) [%] | Analogue (L1210 cells [5]; 100 μM, 48 hours) [nmol/10^6 cells] | Analogue (L1210 cells [5]; 500 μM, 48 hours) [nmol/10^6 cells] | Ki [6] [µM] | Parent drug as % of total drug in the cell (L1210 cells [7]) [%] | Parent drug in L1210 cells (L1210 cells [7]) [pmols/10^6] | also measured |
| --- | --- | --- | --- | --- | --- | --- | --- | --- | --- | --- | --- | --- | --- | --- | --- | --- | --- |
| NCCCCCNCCCCN [4,5-Triamine, 1,6,12-Triazadodecane Trihydrochloride] | > 100 | 0.15 to 0.2 | 57% of untreated control | 19% of untreated control | 410% of untreated control | 0 | 1 | 53 | 0 | 0 | 35 | 3.02 | 3.20 | 1.4 | – | – | Put (L1210 cells [5]; [11]): below detectable level; Spd (L1210 cells [5]; [11]): below detectable level |
| NCCCCCNCCCCCN [5,5-Triamine, 1,7,13-Triazatridecane Trihydrochloride] | ~100 | 0.3 to 0.5 | 88% of untreated control | 16% of untreated control | 90% of untreated control | 0 | 0 | 33 | 0 | 0 | 20 | 2.58 | 2.50 | 13.8 | – | – | Put (L1210 cells [5]; [18]): below detectable level; Spd (L1210 cells [5]; [18]): below detectable level |
| CCNCCCCNCCCCNCC [DEHSPD, N^1,N^9-Diethylhomospermidine Trihydrochloride] | 25 | 0.3 to 0.4 | 90% of untreated control | 47% of untreated control | 640% of untreated control | – | – | – | – | – | – | – | – | 19 | 100 | 4215 | IC50 (L1210 cells [1]; L1210, 48 hour exposure, Trihydrochloride, read-out: IC50 48 hour): 18 to 25 µM; N-Monodealkylation (result in words) (L1210 cells [7]; listed as DE-[4,4], Trihydrochloride): do not show significant N-deethylation; also recorded: no N-deethylation; activity at 25 µM (L1210 cells [5]; L1210, 48 h, 25 μM, read-out: Put): 0%; activity at 25 µM (L1210 cells [5]; L1210, 48 h, 25 μM, read-out: Spd): 6%; activity at 25 µM (L1210 cells [5]; L1210, 48 h, 25 μM, read-out: Spm): 114%; activity at 125 µM (L1210 cells [5]; L1210, 48 h, 125 μM, read-out: Put): 0%; activity at 125 µM (L1210 cells [5]; L1210, 48 h, 125 μM, read-out: Spd): 3%; activity at 125 µM (L1210 cells [5]; L1210, 48 h, 125 μM, read-out: Spm): 97%; Analogue (L1210 cells [5]; 25 μM, 48 hours): 4.61 nmol/10^6 cells; Analogue (L1210 cells [5]; 125 μM, 48 hours): 4.69 nmol/10^6 cells |
| CCCNCCCCNCCCNCCC [DPSPD, N^1,N^8-Dipropylspermidine Trihydrochloride] | > 100 | 30 to 35 | – | 75% of untreated control | 1030% of untreated control | 6 | 35 | 135 | 0 | ~10 | 99 | 3.26 | 3.69 | 25.6 | 90.1 | 3260 | – |
| NCCCCNCCCCN [HSPD, Homospermidine Trihydrochloride] | > 100 | 1.7 to 4 | 54% of untreated control | 11% of untreated control | 430% of untreated control | – | – | – | – | – | – | 3.58 | 4.44 | 3.4 | – | – | activity at 100 µM (L1210 cells [5]; L1210, 100 μM, 48 hours, read-out: Put): 0%; activity at 100 µM (L1210 cells [5]; L1210, 100 μM, 48 hours, read-out: Spd): 4%; activity at 100 µM (L1210 cells [5]; L1210, 100 μM, 48 hours, read-out: Spm): 32%; activity at 500 µM (L1210 cells [5]; L1210, 500 μM, 48 hours, read-out: Put): 0%; activity at 500 µM (L1210 cells [5]; L1210, 500 μM, 48 hours, read-out: Spd): 2%; activity at 500 µM (L1210 cells [5]; L1210, 500 μM, 48 hours, read-out: Spm): 21% |
| CCNCCCNCCCN [MENSPD, monoethylnorspermidine] | > 100 | > 100 | 58% of untreated control | 42% of untreated control | 390% of untreated control | – | – | – | – | – | – | – | – | 34 | 78.2 | 3051 | Elaboration to tetraamine (result in words) (L1210 cells [7]; listed as ME-[3,3]): no evidence of a tetraamine elaboration metabolite; also recorded: no elaboration of N-Monoalkyl [3,3] |
| CCNCCCNCCCCNCCCN [MESPM] | – | – | – | – | – | – | – | – | – | – | – | – | – | – | – | – | Analogue, corresponding tetraamine (in parentheses) (L1210 cells [8]; 100 μM): (1.24) nmol/10^6 cells; Analogue, corresponding tetraamine (in parentheses) (L1210 cells [8]; 500 μM): (1.23) nmol/10^6 cells |
| CCCNCCCCNCCCCN [MPHSPD, N^1-Propylhomospermidine Trihydrochloride] | 100 | 0.5 to 0.7 | 59% of untreated control | 20% of untreated control | 570% of untreated control | 0 | 2 | 82 | 0 | 0 | 66 | 5.16 | 5.86 | 5 | – | – | – |
| NCCCNCCCN [NSPD, N—(3-aminopropyl)-1,3-propanediamine, reference compound] | 0.9 | 0.5 | 62% of untreated control | 11% of untreated control | 150% of untreated control | – | – | – | – | – | – | – | – | 7.2 | – | – | activity at 0.9 µM (L1210 cells [5]; L1210, 0.9 μM, 48 hours, read-out: Put): 38%; activity at 0.9 µM (L1210 cells [5]; L1210, 0.9 μM, 48 hours, read-out: Spd): 44%; activity at 0.9 µM (L1210 cells [5]; L1210, 0.9 μM, 48 hours, read-out: Spm): 113%; activity at 4.5 µM (L1210 cells [5]; L1210, 4.5 μM, 48 hours, read-out: Put): 0%; activity at 4.5 µM (L1210 cells [5]; L1210, 4.5 μM, 48 hours, read-out: Spd): 12%; activity at 4.5 µM (L1210 cells [5]; L1210, 4.5 μM, 48 hours, read-out: Spm): 83%; Analogue (L1210 cells [5]; 0.9 μM, 48 hours): 1.09 nmol/10^6 cells; Analogue (L1210 cells [5]; 4.5 μM, 48 hours): 2.14 nmol/10^6 cells |
